Assay results: ChEMBL document CHEMBL1151840, “Synthetic oligoribonucleotides containing arabinonucleotides act as agonists of TLR7 and 8” (Bioorg Med Chem Lett, 2009)
Activity calls are given as the source filed them. No cut-off for these calls is given here.

Legend:
[1] = tested on: PBMC; experiment: Stimulation of immune response in human PBMC assessed as induction of IL1-beta production at 150 ug/ml after 24 hrs; format: functional, cell-based
[2] = tested on: PBMC; experiment: Stimulation of immune response in human PBMC assessed as induction of IFNalpha production at 150 ug/ml after 24 hrs; format: functional, cell-based
[3] = molecular target: T1, Toll-like receptor 8 (Homo sapiens) (UniProt Q9NR97); experiment: Agonist activity at human TLR8 expressed in HEK293XL cells assessed as NF-kappaB activation after 18 hrs; format: functional, cell-based
T1 sequence (whole entry): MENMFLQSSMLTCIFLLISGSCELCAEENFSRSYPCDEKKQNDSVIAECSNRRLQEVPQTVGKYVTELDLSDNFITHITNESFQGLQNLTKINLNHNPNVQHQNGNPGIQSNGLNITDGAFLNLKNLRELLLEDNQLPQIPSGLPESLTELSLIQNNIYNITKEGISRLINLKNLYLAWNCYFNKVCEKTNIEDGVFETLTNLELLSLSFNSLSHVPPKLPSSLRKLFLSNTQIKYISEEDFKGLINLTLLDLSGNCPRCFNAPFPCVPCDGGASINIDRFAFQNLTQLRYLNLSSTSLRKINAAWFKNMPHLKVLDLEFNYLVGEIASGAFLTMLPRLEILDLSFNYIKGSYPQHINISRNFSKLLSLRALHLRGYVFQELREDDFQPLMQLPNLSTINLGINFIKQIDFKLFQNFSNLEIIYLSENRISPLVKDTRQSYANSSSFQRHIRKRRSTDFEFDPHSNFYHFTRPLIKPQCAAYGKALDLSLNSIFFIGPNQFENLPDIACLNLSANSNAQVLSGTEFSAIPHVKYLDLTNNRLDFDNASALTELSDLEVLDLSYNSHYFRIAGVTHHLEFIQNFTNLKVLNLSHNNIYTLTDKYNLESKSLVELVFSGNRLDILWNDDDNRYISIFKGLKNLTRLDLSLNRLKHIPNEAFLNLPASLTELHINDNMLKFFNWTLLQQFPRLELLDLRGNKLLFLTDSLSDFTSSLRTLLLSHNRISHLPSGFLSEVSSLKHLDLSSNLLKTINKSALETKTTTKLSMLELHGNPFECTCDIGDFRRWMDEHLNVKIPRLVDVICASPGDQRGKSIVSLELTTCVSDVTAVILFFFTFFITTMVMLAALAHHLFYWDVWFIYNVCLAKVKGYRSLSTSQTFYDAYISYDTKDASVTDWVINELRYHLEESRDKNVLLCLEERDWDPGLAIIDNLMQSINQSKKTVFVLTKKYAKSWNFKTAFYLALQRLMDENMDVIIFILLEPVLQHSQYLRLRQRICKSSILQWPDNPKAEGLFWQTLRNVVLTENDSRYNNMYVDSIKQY

[4] = Stability in human serum assessed as full-length compound remaining after 10 mins by anion-exchange HPLC; format: ADME, cell-free; settings: read-out: Stability
[5] = organism: Homo sapiens; experiment: Stimulation of immune response in human pDC assessed as induction of MIP1beta production at 150 ug/ml after 24 hrs; format: functional
[6] = tested on: PBMC; experiment: Stimulation of immune response in human PBMC assessed as induction of IL12 production at 150 ug/ml after 24 hrs; format: functional, cell-based
[7] = molecular target: T2, Toll-like receptor 7 (Homo sapiens) (UniProt Q9NYK1); experiment: Agonist activity at human TLR7 expressed in HEK293XL cells assessed as NF-kappaB activation at 300 ug/ml after 18 hrs; format: functional, cell-based
T2 sequence (whole entry): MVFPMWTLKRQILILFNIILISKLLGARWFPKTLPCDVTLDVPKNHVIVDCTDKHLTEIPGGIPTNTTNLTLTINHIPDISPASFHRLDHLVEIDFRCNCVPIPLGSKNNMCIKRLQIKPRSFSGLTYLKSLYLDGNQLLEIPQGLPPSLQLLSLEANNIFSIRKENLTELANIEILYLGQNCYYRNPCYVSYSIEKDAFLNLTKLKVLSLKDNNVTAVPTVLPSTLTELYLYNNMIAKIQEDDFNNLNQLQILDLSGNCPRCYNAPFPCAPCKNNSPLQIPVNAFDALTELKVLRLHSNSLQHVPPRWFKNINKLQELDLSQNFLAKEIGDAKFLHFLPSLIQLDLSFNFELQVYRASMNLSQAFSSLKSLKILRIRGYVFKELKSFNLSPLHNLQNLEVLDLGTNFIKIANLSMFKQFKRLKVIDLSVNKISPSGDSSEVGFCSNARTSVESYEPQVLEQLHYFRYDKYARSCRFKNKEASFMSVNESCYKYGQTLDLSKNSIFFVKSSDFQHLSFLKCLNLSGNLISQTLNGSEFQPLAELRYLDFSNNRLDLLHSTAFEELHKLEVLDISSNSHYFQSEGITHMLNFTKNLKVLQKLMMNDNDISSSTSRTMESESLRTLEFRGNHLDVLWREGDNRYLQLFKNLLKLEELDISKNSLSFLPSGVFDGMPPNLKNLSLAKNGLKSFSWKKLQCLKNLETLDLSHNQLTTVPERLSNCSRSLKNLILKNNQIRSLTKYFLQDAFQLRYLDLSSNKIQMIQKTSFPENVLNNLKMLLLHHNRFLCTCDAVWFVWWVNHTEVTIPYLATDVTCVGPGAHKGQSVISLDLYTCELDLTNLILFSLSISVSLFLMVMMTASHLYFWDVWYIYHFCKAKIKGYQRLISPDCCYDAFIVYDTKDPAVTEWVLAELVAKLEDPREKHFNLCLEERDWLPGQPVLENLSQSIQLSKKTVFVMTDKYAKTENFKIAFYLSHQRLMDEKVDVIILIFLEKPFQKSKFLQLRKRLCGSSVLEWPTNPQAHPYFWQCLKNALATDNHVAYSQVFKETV

[8] = tested on: Mus musculus; experiment: Stimulation of immune response in C57BL/6 mouse assessed as induction of serum IL12 production at 50 mg/kg, sc after 2 hrs by luminex multiplex assay; format: functional, organism-based; parameters: dose 50 mg/kg
[9] = organism: Homo sapiens; experiment: Stimulation of immune response in human pDC assessed as induction of IL12 production at 150 ug/ml after 24 hrs; format: functional
[10] = organism: Homo sapiens; experiment: Stimulation of immune response in human pDC assessed as induction of IFN-gamma production at 150 ug/ml after 24 hrs; format: functional
[11] = organism: Homo sapiens; experiment: Stimulation of immune response in human pDC assessed as induction of TNFalpha production at 150 ug/ml after 24 hrs; format: functional
[12] = organism: Homo sapiens; experiment: Stimulation of immune response in human pDC assessed as induction of IFNalpha production at 150 ug/ml after 24 hrs; format: functional
[13] = tested on: PBMC; experiment: Stimulation of immune response in human PBMC assessed as induction of MIP1beta production at 150 ug/ml after 24 hrs; format: functional, cell-based
[14] = tested on: PBMC; experiment: Stimulation of immune response in human PBMC assessed as induction of IL2R level at 150 ug/ml after 24 hrs; format: functional, cell-based
[15] = organism: Homo sapiens; experiment: Stimulation of immune response in human pDC assessed as induction of MIP1alpha production at 150 ug/ml after 24 hrs; format: functional
[16] = tested on: PBMC; experiment: Stimulation of immune response in human PBMC assessed as induction of IL10 production at 150 ug/ml after 24 hrs; format: functional, cell-based
[17] = tested on: PBMC; experiment: Stimulation of immune response in human PBMC assessed as induction of IFN-gamma production at 150 ug/ml after 24 hrs; format: functional, cell-based
[18] = tested on: PBMC; experiment: Stimulation of immune response in human PBMC assessed as induction of RANTES production at 150 ug/ml after 24 hrs; format: functional, cell-based
[19] = tested on: PBMC; experiment: Stimulation of immune response in human PBMC assessed as induction of IL8 production at 150 ug/ml after 24 hrs; format: functional, cell-based
[20] = tested on: PBMC; experiment: Stimulation of immune response in human PBMC assessed as induction of MIP1alpha production at 150 ug/ml after 24 hrs; format: functional, cell-based
[21] = tested on: PBMC; experiment: Stimulation of immune response in human PBMC assessed as induction of MCP1 production at 150 ug/ml after 24 hrs; format: functional, cell-based
[22] = tested on: PBMC; experiment: Stimulation of immune response in human PBMC assessed as induction of TNFalpha production at 150 ug/ml after 24 hrs; format: functional, cell-based

Activity [3]: Dose-dependent effect
remaining at 10 min [4]: 76%
Activity [7]: inactive
SMILES: Nc1ccn([C@@H]2O[C@H](COP(=O)(S)O[C@H]3[C@@H](O)[C@H](n4ccc(=O)[nH]c4=O)O[C@@H]3COP(=O)(S)O[C@H]3[C@@H](O)[C@H](n4ccc(=O)[nH]c4=O)O[C@@H]3COP(=O)(S)O[C@H]3[C@@H](O)[C@H](n4cnc5c(=O)[nH]c(N)nc54)O[C@@H]3COP(=O)(S)O[C@H]3[C@@H](O)[C@H](n4ccc(=O)[nH]c4=O)O[C@@H]3COP(=O)(S)O[C@H]3[C@@H](O)[C@H](n4cnc5c(=O)[nH]c(N)nc54)O[C@@H]3COP(=O)(S)OCC(O)COP(=O)(S)O[C@H]3[C@@H](O)[C@H](n4cnc5c(=O)[nH]c(N)nc54)O[C@@H]3COP(=O)(S)O[C@H]3[C@@H](O)[C@H](n4ccc(=O)[nH]c4=O)O[C@@H]3COP(=O)(S)O[C@H]3[C@@H](O)[C@H](n4cnc5c(=O)[nH]c(N)nc54)O[C@@H]3COP(=O)(S)O[C@H]3[C@@H](O)[C@H](n4ccc(=O)[nH]c4=O)O[C@@H]3COP(=O)(S)O[C@H]3[C@@H](O)[C@H](n4ccc(=O)[nH]c4=O)O[C@@H]3COP(=O)(S)O[C@H]3[C@@H](O)[C@H](n4ccc(N)nc4=O)O[C@@H]3COP(=O)(S)O[C@H]3[C@@H](O)[C@H](n4cnc5c(=O)[nH]c(N)nc54)O[C@@H]3COP(=O)(S)O[C@H]3[C@H](O)[C@H](n4ccc(=O)[nH]c4=O)O[C@@H]3COP(=O)(S)O[C@H]3[C@@H](O)[C@H](n4ccc(N)nc4=O)O[C@@H]3COP(=O)(S)O[C@H]3[C@@H](O)[C@H](n4cnc5c(=O)[nH]c(N)nc54)O[C@@H]3COP(=O)(S)O[C@H]3[C@H](O)[C@H](n4ccc(=O)[nH]c4=O)O[C@@H]3CO)[C@@H](OP(=O)(S)OC[C@H]3O[C@@H](n4cnc5c(=O)[nH]c(N)nc54)[C@H](O)[C@@H]3OP(=O)(S)OC[C@H]3O[C@@H](n4ccc(=O)[nH]c4=O)[C@@H](O)[C@@H]3OP(=O)(S)OC[C@H]3O[C@@H](n4ccc(N)nc4=O)[C@H](O)[C@@H]3OP(=O)(S)OC[C@H]3O[C@@H](n4cnc5c(=O)[nH]c(N)nc54)[C@H](O)[C@@H]3OP(=O)(S)OC[C@H]3O[C@@H](n4ccc(=O)[nH]c4=O)[C@@H](O)[C@@H]3OP(=O)(O)S)[C@H]2O)c(=O)n1 (some centres not stated)
Activity [1]: Active
Activity [2]: Active
Activity [5]: Active
Activity [6]: Active
Activity [8]: inactive
Activity [9]: Active
Activity [10]: Active
Activity [11]: Active
Activity [12]: inactive
Activity [13]: Active
Activity [14]: Active
Activity [15]: Active
Activity [16]: Active
Activity [17]: Active
Activity [18]: Active
Activity [19]: Active
Activity [20]: Active
Activity [21]: Active
Activity [22]: Active
